Measurements taken from patent US5369111A, “Modulator agent and use thereof” (University of Vermont, priority 1992, dated 1994).
pIC50: −log10 of the molar value. Entries after “also recorded” stand apart in the source; their conditions may differ. Like-named read-outs stand apart in the source and are kept apart here.

Columns and labels:
S180 cells, parental = experiment: Modulation of intrinsic drug resistance, parental S180; type: cell-based, murine; conditions: for effect on VBL toxicity in parental S180 cells (in words): 50-fold concentration range; for modulation of sensitivity of parental S180 cells to VBL, VCR and ADM (in words): all three drugs
Method: (§1) Mid-exponential cultures were used for all assays. The RCC-2 and RCC-5 cell lines were seeded into 24-well plates at 2×10^4 cells/well and allowed to attach to the substratum for 16-18 h prior to treatment. The S180 cell lines were seeded into culture tubes at 1×10^5 cells/ml and treated immediately. Cytotoxicity was determined by quantitation of population growth after 72 h incubation by electronic particle counter (Coulter Electronics, Hialeah, Fla.). The human tumor cell lines were used in a clonogenic assay for cytotoxicity. Cells were seeded at 300 cells/dish, incubated overnight and then treated. Colonies were scored 7-11 days later. In all assays of analog modulation of drug sensitivity, the analog was added minutes prior to the addition of cytotoxic drug.
The ability of the compounds to modulate drug sensitivity in parental cells was studied over a range of concentrations of each compound, from 10^-6 M to the non-toxic (IC10-20) or solubility limit. […] From such experiments, we determined a sensitivity index derived from the IC50 of the drug without modulator treatment divided by the drug IC50 at each concentration of modulator.
When the sensitivity index for each drug, VBL, VCR and ADM is plotted versus the modulator concentration (FIG. 4), we can compare the relative potencies of the compounds as modulators of drug toxicity to the parental S180 cells.
*calculated as the IC50 of the drug alone divided by the IC50 o
the [drug modulator] combination. Data are presented from tretments with
FIG. 4 represents the potency of the vinca alkaloid compounds as modulators of drug sensitivity in S180 cells. The enhancement of sensitivity was calculated as the sensitivity index=IC50 of the drug alone divided by the IC50 of the drug+modulator. The IC50s for ADM (o) VBL (Δ), or VCR (.quadrature.) were determined over a concentration range of each modulator from data such as those depicted in FIG. 3. The values presented were averaged from duplicate samples of two separate experiments, S.D. <15% of the mean.

RCC-2 and RCC-5 cells = experiment: Modulation of intrinsic drug resistance, RCC-2 and RCC-5; type: cell-based, rat; conditions: at the non-toxic concentration limit of 1-2 μM
Method: as §1

[1] = Inhibition of population growth of rat colon cancer cell lines RCC-2 and RCC-5; type: cell-based; conditions: rat, rcc-2 and rcc-5 cells; read-out: non-toxic concentration limit
Excerpt: The analogs were examined in a panel of tumor cell lines of both intrinsic and acquired drug resistance, as described in Table 1. The rat colon adenocarcinoma cell lines RCC-2 and RCC-5 (ref. 13) were maintained in Ham's F12 medium supplemented with 5% heat-inactivated, fetal bovine serum (Sterile Systems. Hyclone, Logan, Utah). The two rat colon cancer cell lines differ in their degree of cellular differentiation; whereas the RCC-2 cell line is undifferentiated, the RCC-5 cell line is highly mucinous. The human epidermoid carcinoma cell line KB-3-1 and its MDR variant KB-Vl, selected by VBL treatment (ref. 14; courtesy of M. Gottesman. National Cancer Institute), was maintained in DMEM medium supplemented with 10%, heat-inactivated, fetal bovine serum. […]
Mid-exponential cultures were used for all assays. […] Cytotoxicity was determined by quantitation of population growth after 72 h incubation by electronic particle counter (Coulter Electronics, Hialeah, Fla.). […] Colonies were scored 7-11 days later. […]
FIG. 7 represents the toxicity of analog C-20'-deoxy vincovaline (A) and C-20'-deoxy deethyl vincovaline (B) to population growth of the rat colon adenocarcinoma cell lines. The congener was added at various concentrations to RCC-2 (.cndot.) and RCC-5 (Δ) cell cultures and the population cell number was determined 72 hours later. […]

S180/A10 cells = experiment: Modulator potency in MDR cells: reversal of acquired resistance, S180/A10; type: cell-based, murine; conditions: A10 cells, 90 fold ADM resistance
Method: as §1
(§2) To evaluate the ability of vindoline and the two diastereoisomeric VBL analogs to modulate the MDR phenotype (acquired resistance) of the A3 and A10 cell stains, we determined the concentration of compound required to restore drug sensitivities to parental levels. This was done by exposing the MDR cell line to a concentration range of modulator in the presence VBL, VCR and ADM at the respective IC70s of the parental cell line. The cytotoxicity curves for A3 and A10 cells, shown in FIG. 5, are distinctive among the three vinca alkaloids examined. In each cell line, there was a minimum concentration of modulator that elicited 70% growth inhibition for each drug - i.e. the reversing concentration.
*The minimal concentration of modulator required to restore the drug
sensitivity of S180/MDR cell strains to that of parental S180 cells. Data
are the averages of 2-3 separate experiments, S.D. ≤20%.

[2] = system: S180 cell system (S180, A3, A10); experiment: Inherent cytotoxicity in the S180 cell system (S180, A3, A10); type: cell-based, murine; conditions: for pIC50: Mus musculus; for inherent cytotoxicity / resistance profile (in words): S180, A3, A10
Excerpt: (§3) The analogs were examined in a panel of tumor cell lines of both intrinsic and acquired drug resistance, as described in Table 1. The rat colon adenocarcinoma cell lines RCC-2 and RCC-5 (ref. 13) were maintained in Ham's F12 medium supplemented with 5% heat-inactivated, fetal bovine serum (Sterile Systems. Hyclone, Logan, Utah). The two rat colon cancer cell lines differ in their degree of cellular differentiation; whereas the RCC-2 cell line is undifferentiated, the RCC-5 cell line is highly mucinous. The human epidermoid carcinoma cell line KB-3-1 and its MDR variant KB-Vl, selected by VBL treatment (ref. 14; courtesy of M. Gottesman. National Cancer Institute), was maintained in DMEM medium supplemented with 10%, heat-inactivated, fetal bovine serum. The murine sarcoma cell line […] and its MDR strains A3 and A10 selected by ADM treatment (ref. 15; courtesy of T. Tritton, Dept. Pharmacology, Univ. Vermont). were maintained in DMEM medium supplemented with 10% heat-inactivated, horse serum (Hazelton Biolog. Lenexa, Kans.). Stock cultures were subcultured twice weekly upon reaching the late exponential phase of population growth: population doubling times were 18-24 h. Antibiotics were not used in stock or experimental cultures. The MDR cell strains were grown in drug-free media for 48 h prior to experimental use.
as §1
FIG. 2 represents the toxicity of the vinca alkaloid compounds to population growth. Vindoline, vincovaline or the analog, C-20'-deoxy vincovaline was added, at various concentrations, to S180 (.cndot.), A3 (o), or A10 (Δ) cell cultures. The population cell number was determined 72 hours later.

[3] = system: S180 MDR cell strains A3 and A10; experiment: Modulation of acquired drug resistance in the S180 MDR cell strains A3 and A10; type: cell-based, murine; conditions: A3 and A10
Method: as §1, §2
FIG. 5 represents the modulation of multidrug resistance in the MDR cell strains by the vinca alkaloids. Vindoline (A), vincovaline (B), or the analog C-20'-deoxy vincovaline (C) was added, at various concentrations, to A3 (closed symbols) or A10 (opened symbols) cell cultures containing the parental IC70 of each drug: 2.0×10^-7 M. ADM (circles: 1.5×10^-8 M VBL (triangles); and 4.5×10^-8 M; VCR (squares). Population growth was determined 72 hours later.
FIG. 6 represents the relationship between cellular drug resistance level and the minimal modulator concentration required for complete reversal of drug resistance. The drugs examined were ADM (o), VBL (Δ), and VCR (.quadrature.). The amount (concentration) of modulator, necessary to reverse each level of drug resistance contained in the A3 and A10 cell lines, was determined from data such as those of FIG. 5. The values presented were averaged from duplicate samples of two separate experiments, S.D.<15% of the mean. The arrows denote the non-toxic concentration limit for the modulator; in the case of Vincovaline this value is dependent on the MDR cell strain, 2×10^-5 M, A3; 5×10^-5 M. A10.
FIG. 11 represents the modulation of multidrug resistance in the S180 MDR cell strains A3 and A10. The cellular drug resistance level is plotted against the minimal concentration of C-20'-deoxy deethyl vincovaline required for the complete reversal of drug resistance to ADM (o), VBL (Δ), and VCR (.quadrature.). In the case of high level ADM resistance […], the sensitivity of the cells was restored to 80% of the parental value. The arrow denotes the non-toxic concentration limit of the analog.

[4] = Inhibition of population growth (cytotoxicity), MDR strain S180/A10; type: cell-based, mouse; conditions: mouse, s180/a10 cells; read-out: non-toxic concentration limit for the modulator
Excerpt: as §3, §1

[5] = Inhibition of population growth (cytotoxicity), MDR strain S180/A3; type: cell-based, mouse; conditions: mouse, s180/a3 cells; read-out: non-toxic concentration limit for the modulator
Excerpt: as §3, §1

[6] = listed as C-20'-deoxy Vincovaline

| SMILES | effect on VBL toxicity in parental S180 cells (in words) (S180 cells, parental) | effect on VBL toxicity in parental S180 cells (in words) (S180 cells, parental; [6]) | modulation of VCR and ADM cytotoxicity in parental S180 cells (in words) (S180 cells, parental) | modulation of VCR and ADM cytotoxicity in parental S180 cells (in words) (S180 cells, parental; [6]) | modulation of VCR and ADM cytotoxicity in parental S180 cells (in words) (S180 cells, parental; listed as C-29'-deoxy vincovaline) | sensitization to VBL, VCR and ADM (RCC-2 and RCC-5 cells) | MNTC at 72 h [1] | reversal of high level ADM resistance (in words) (S180/A10 cells) | pIC50 ([2]; S-180, read-out: IC50 (inhibition of cell growth)) | inherent cytotoxicity / resistance profile (in words) [2] | inherent cytotoxicity / resistance profile (in words) ([2]; 16', 20'-epi-VBL) | non-toxic concentration limit (in words) ([2]; S180 cell system) | modulation of cellular resistance to VBL, VCR and ADM in MDR cell strains (in words) [3] | modulation of cellular resistance to VBL, VCR and ADM in MDR cell strains (in words) ([3]; 16', 20'-epi-VBL) | modulation of sensitivity of parental S180 cells to VBL, VCR and ADM (in words) (S180 cells, parental) | modulation of sensitivity of parental S180 cells to VBL, VCR and ADM (in words) (S180 cells, parental; listed as Vincovaline) | MNTC at 72 h [4] | MNTC at 72 h [5] | pIC50 ([2]; S-180, S180 parental and MDR cell lines, read-out: IC50 (inhibition of cell growth)) | modulation of cellular resistance to VBL, VCR and ADM in MDR cell strains (in words) ([3]; listed as C-14', 16', 20'-epi-VBL) |
| --- | --- | --- | --- | --- | --- | --- | --- | --- | --- | --- | --- | --- | --- | --- | --- | --- | --- | --- | --- | --- |
| CC[C@H]1C[C@H]2CN(CCc3c([nH]c4ccccc34)[C@](C(=O)OC)(c3cc4c(cc3OC)N(C)[C@H]3[C@@](O)(C(=O)OC)[C@H](OC(C)=O)[C@]5(CC)C=CCN6CC[C@]43[C@@H]65)C2)C1 [C-20'-deoxy vincovaline, C-20'-deoxy C-14', 16', 20'-epi-VBL] | no effect on cell sensitivity to VBL | no effect on VBL toxicity | progressive sensitization of the cells to the drug with increasing analog concentrations; also recorded: similar, concentration-dependent enhancement of VCR and ADM cytotoxicity; also recorded: sensitizes S180 cells to ADM and VCR but not to VBL | similar, concentration-dependent enhancement | most potent modulator of intrinsic resistance to ADM and VCR | 2- to 4 fold | 1000 to 2000 nM | reversing completely the high level ADM resistance (90 fold) | < 5.00 | very weak cytotoxic agent | cross-resistance | beyond the limits of solubility | reverses MDR in the A3 and A10 cell strains, without evidence of drug-specificity | modulators of cellular resistance to VBL, VCR and ADM | – | – | – | – | – | – |
| CC[C@@]1(O)C[C@H]2CN(CCc3c([nH]c4ccccc34)[C@](C(=O)OC)(c3cc4c(cc3OC)N(C)[C@H]3[C@@](O)(C(=O)OC)[C@H](OC(C)=O)[C@]5(CC)C=CCN6CC[C@]43[C@@H]65)C2)C1 [vincovaline, C-14', 16', 20'-epi-VBL] | – | – | – | – | – | – | – | limited in this activity by their own cytoxicity in the MDR cell lines | – | cross-resistance | – | – | significant activity with MDR cells is coincident with its non-toxic concentration limit in each cell line | – | sensitized the parental S180 cells to all three drugs | weak modulator of drug sensitivity; also recorded: poor modulator of drug sensitivity in the parental cell line | 50 µM | 20 µM | < 5.00 | modulators of cellular resistance to VBL, VCR and ADM |
